Read-outs that look alike come from different tables or passages of the source.
Columns and labels:
[1] = molecular target: T1, human M1 receptor (Homo sapiens, UniProt P11229); assay: Radioligand ([3H]N-methylscopolamine) binding assay, CHO cell membranes; conditions: 1.5 nM tritiated N-methylscopolamine, 90 minutes at 37° C.; read-out: Binding affinity (Ki) M1
T1 construct: expressed in transfected cells; host or cells: CHO cells
T1 sequence (P11229 1-460): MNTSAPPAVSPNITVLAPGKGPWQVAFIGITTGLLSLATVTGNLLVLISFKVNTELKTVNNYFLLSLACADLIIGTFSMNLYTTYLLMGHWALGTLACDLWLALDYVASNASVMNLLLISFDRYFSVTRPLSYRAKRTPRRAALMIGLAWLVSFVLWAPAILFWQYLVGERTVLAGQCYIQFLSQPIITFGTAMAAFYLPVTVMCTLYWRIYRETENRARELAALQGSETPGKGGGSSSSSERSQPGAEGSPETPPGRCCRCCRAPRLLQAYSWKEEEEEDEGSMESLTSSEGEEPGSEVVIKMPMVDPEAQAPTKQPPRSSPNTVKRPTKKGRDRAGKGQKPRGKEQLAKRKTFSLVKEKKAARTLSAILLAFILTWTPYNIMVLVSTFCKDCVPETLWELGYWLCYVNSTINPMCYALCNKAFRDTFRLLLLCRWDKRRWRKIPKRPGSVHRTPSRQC
Method: Binding affinity (Ki) of compounds was measured by inhibition of radioligand binding to membranes from CHO cells expressing human M1, M2, M3, M4 and M5 receptors. Membranes were prepared by nitrogen cavitation and differential centrifugation as previously described (Hoare et al., Mol. Pharmacol. 2003 March; 63(3): 751-65). The radioligand employed was tritiated N-methylscopolamine, used at a concentration of 1.5 nM. A dose-response of twelve concentrations of compound was used, ranging from […]. The assay buffer was 50 mM HEPES, 100 mM NaCl, 5 mM MgCl2, 1 mM ethylenediaminetetraacetic acid, pH-adjusted to pH 7.4. Membranes, radioligand and compound were incubated together for 90 minutes at 37° C., in a total volume of 150 μL in a 96-well plate. Receptor-bound radioligand was then collected by harvesting the assay over glass fiber filters pretreated with polyethylenimine to trap the cell membranes, using rapid vacuum filtration. Harvesting and radioactivity counting was conducted as previously described (see, e.g., Hoare et al., Mol. Pharmacol. 2003 63(3):751-65); Erratum at Mol. Pharmacol. 2005 July; 68(1): 260).

[2] = Rat pharmacokinetics (IV and PO); assay type: in vivo, male Sprague-Dawley rats; conditions: male, Sprague-Dawley, plasma; for Vd: read-out: Vdss; for half-life: read-out: T½ (converted); for Tmax: read-out: Tmax range
Method: The pharmacokinetics of Compounds 1, 2, 3A, and 4A were assessed in male Sprague-Dawley rats following either intravenously (IV) or orally (PO) dosing. Sin-life portions of the studies were either conducted internally at Neurocrine Biosciences or contracted to Charles River Laboratories or Agilux Laboratories. All studies were performed according to good scientific principles and internal standard operating procedures (SOPs). However, the studies were exploratory in nature and were not conducted in accordance with the United States Food and Drug Administration (FDA) Good Laboratory Guidance (GLP) regulations.
Adult (8-9 weeks old) male rats were acclimated prior to dose administration. For dosing, rats were either dosed intravenously through the femoral vein or orally via oral gavage. Food and water were provided ad libitum during the acclimation period. The rats were maintained in a controlled temperature and humidity environment with a photoperiod with a 12 hour light to dark cycle. Rats were either dosed fed or fasted. In studies where the rats were fasted, rats were allowed access to food four hours post-dose.
For the IV bolus dose, compound was administered over a period of approximately 30 seconds using a 1 mL syringe via the femoral vein catheter. The IV dose was followed with a bolus of sterile saline (approximately 100 μL). For IV infusion doses, compound was administered using an IV infusion pump to deliver the total dose volume over 1 hour. Rats were connected to the infusion pump through catheter tubing that was connected to the femoral catheter prior to the infusion start. For the oral dose, compound was administered using flexible, polypropylene-shafted, silicone bulb shaped-tipped gavage (Instech Solomon plastic feeding tubes, 18 gauge×75 mm). Animals were periodically observed for eight hours following the dose administration for potential test article related effects.
Serial blood samples from IV and PO dosed rats (N=3 or 4) were collected out to 24 hours post-dose. For the time points up to 8 hours post dose, approximately 200 μL of whole blood was drawn from the jugular catheter or from the tail vein with a 1-mL syringe. The whole blood was transferred to a 600 μL Sarstedt collection tube that contained 1.2-2 mg EDTA-K3/mL of anticoagulant, gently mixed, and then centrifuged for 1.0 min at 13,000 rpm. Approximately 100 μL of plasma was aliquoted. Blood for the terminal time points at 24 hours were collected by […] with a syringe containing 1.6 mg EDTA-K3/mL of anticoagulant, transferred to an Eppendorf and immediately centrifuged for 1.0 min at 13,000 rpm. Approximately 300 μL of plasma was aliquoted. The aliquoted plasma samples were stored at −80° C. until analysis.
For IV and PO dose groups, descriptive pharmacokinetics were derived and evaluated based on the plasma concentrations from each individual rat. Pharmacokinetic parameters were determined using non-compartmental analysis (NCA) of plasma concentration-time profiles in Phoenix WinNonlin pharmacokinetic modeling software Professional (version 6.3; Pharsight Corporation). Nominal time was used for all timepoints unless otherwise indicated. Descriptive statistics (means, standard deviations and coefficient of variation) were also generated. Mean pharmacokinetic summaries of Compounds 1-4 following intravenous and PO dosing in Sprague Dawley rats were summarized in Tables 15 and 16.
Plasma samples of compounds 1, 2, 3A, and 4A were prepared by protein precipitation. Calibration standards and quality control plasma samples were prepared from the same lot of reference standard to quantify the concentration of the study samples. […]

[3] = IV infusion (1 hr), 2 mg/kg, HCl salt
[4] = iv, 1 mg/kg, IV bolus, 1 mg/kg, HCl salt
[5] = iv, 1 mg/kg, IV bolus, HCl salt
[6] = iv, 2 mg/kg, IV infusion (1 hr), 2 mg/kg, HCl salt
[7] = iv, 2 mg/kg, IV infusion (1 hr), HCl salt
[8] = po, 10 mg/kg, PO 10 mg/kg, 1% Tween-80 in water (suspension)
[9] = po, 10 mg/kg, PO 10 mg/kg, 10% PEG-400 in 0.5% MC (suspension)
[10] = po, 10 mg/kg, PO 10 mg/kg, 10% PEG-400 in 0.5% MC in water (solution)
[11] = PO 10 mg/kg, 10% PEG-400 in 0.5% MC in water (solution)
[12] = iv, 2.5 mg/kg, IV bolus, HCl salt
[13] = po, 10 mg/kg, PO 10 mg/kg, 5% Tween-80 in 0.5% (w/v) MC in water (suspension)
[14] = po, 10 mg/kg, PO 10 mg/kg, 30% PG, 20% PEG-400, 0.5% MC in water (solution)

Row | Ki [1] [µM] | clearance ([2]; IV bolus, 1 mg/kg, HCl salt) [mL/min/kg] | Vd ([2]; IV bolus, 1 mg/kg, HCl salt) [L/kg] | clearance [2, 3] [mL/min/kg] | Vd [2, 3] [L/kg] | half-life [2, 4] [h] | AUC(0-inf) [2, 5] [ng·h/mL] | AUC(0-t) [2, 5] [ng·h/mL] | half-life [2, 6] [h] | AUC(0-inf) [2, 7] [ng·h/mL] | AUC(0-t) [2, 7] [ng·h/mL] | AUC(0-t) [2, 10] [ng·h/mL] | Cmax [2, 10] [ng/mL] | Tmax [2, 10] [h] | bioavailability [2, 11] [%] | AUC(0-inf) [2, 10] [ng·h/mL] | half-life [2, 10] [h] | AUC(0-inf) [2, 13] [ng·h/mL] | AUC(0-t) [2, 13] [ng·h/mL] | Cmax [2, 13] [ng/mL] | SMILES | also measured
1 | ≥ 1 | 40.4 | 28.2 | 15.8 | 12.1 | 9.1 | 415 | 357 | 10.2 | 1680 | 1780 | 3150 | 264 | 0.5 to 1 | – | – | – | – | – | – | C[C@@H]1CN(c2cnc(C(F)(F)F)cn2)C[C@H](C)N1C(=O)OCCC1CCN(Cc2ccccc2)CC1 [Compound 1, 2-(1-benzylpiperidin-4-yl)ethyl (2R,6S)-2,6-dimethyl-4-[5-(trifluoromethyl)pyrazin-2-yl]piperazine-1-carboxylate] | bioavailability ([2]; PO 10 mg/kg, 10% PEG-400 in 0.5% MC (suspension)): 89.1%; AUC(0-t) [2, 8]: 3950 ng·h/mL; Cmax [2, 8]: 280 ng/mL; Tmax [2, 8]: 1 h; AUC(0-t) [2, 9]: 3180 ng·h/mL; Cmax [2, 9]: 164 ng/mL; Tmax [2, 9]: 2 to 7.5 h
2 | ≥ 1 | – | – | 44.9 | 36 | – | – | – | 11 | 747 | 613 | 2190 | 130 | 2 to 7.5 | 81.4 | 3040 | 12.9 | – | – | – | C[C@@H]1CN(c2cnc(C(F)(F)F)cn2)C[C@@H](C)N1C(=O)OCCC1CCN(Cc2ccccc2)CC1 [Compound 2, 2-(1-benzylpiperidin-4-yl)ethyl (2R,6R)-2,6-dimethyl-4-[5-(trifluoromethyl)pyrazin-2-yl]piperazine-1-carboxylate] | –
3 | – | – | – | – | – | – | – | – | – | – | – | – | – | – | – | – | – | 1150 | 1500 | 205 | C[C@@H]1CN(c2ncc(C#N)cn2)C[C@H](C)N1C(=O)NCCC1CCN(Cc2ccccc2)CC1 [Compound 3A] | clearance ([2]; IV bolus, 2.5 mg/kg, HCl salt): 47.5 mL/min/kg; Vd ([2]; IV bolus, 2.5 mg/kg, HCl salt): 4.37 L/kg; bioavailability ([2]; PO 10 mg/kg, 30% PG, 20% PEG-400, 0.5% MC in water (solution)): 43.7%; half-life ([2]; iv, 2.5 mg/kg, IV bolus, 2.5 mg/kg, HCl salt): 1.95 h; AUC(0-inf) [2, 12]: 882 ng·h/mL; AUC(0-t) [2, 12]: 854 ng·h/mL; Tmax [2, 13]: 0.5 to 4 h; half-life [2, 13]: 3.21 h; AUC(0-inf) [2, 14]: 1540 ng·h/mL; AUC(0-t) [2, 14]: 1400 ng·h/mL; Cmax [2, 14]: 247 ng/mL; Tmax [2, 14]: 0.5 to 2 h; half-life [2, 14]: 3.65 h
4 | – | 56.6 | 16.1 | – | – | 5.01 | 204 | 288 | – | – | – | 1700 | 182 | 0.5 to 2 | 59.2 | 1740 | 4.2 | 3500 | 2530 | 231 | C[C@@H]1CN(c2cnc(C(F)(F)F)cn2)C[C@@H](C)N1C(=O)NCCC1CCN(Cc2ccccc2)CC1 [Compound 4A] | Tmax [2, 13]: 1 to 8 h; half-life [2, 13]: 7.09 h

— patent US12486250B2, “Muscarinic receptor 4 antagonists and methods of use” (Neurocrine Biosciences, Inc., priority 2019, dated 2025)
